Source: patent publication US12441768B2, “Compositions and methods for treating endometriosis” (EndoMet Biosciences, Inc., priority 2018, dated 2025)
Where a SMILES comes first, the peptide text is derived from it.

Target: T1, β-catenin (Homo sapiens, UniProt P35222)
T1 sequence (P35222 1-781): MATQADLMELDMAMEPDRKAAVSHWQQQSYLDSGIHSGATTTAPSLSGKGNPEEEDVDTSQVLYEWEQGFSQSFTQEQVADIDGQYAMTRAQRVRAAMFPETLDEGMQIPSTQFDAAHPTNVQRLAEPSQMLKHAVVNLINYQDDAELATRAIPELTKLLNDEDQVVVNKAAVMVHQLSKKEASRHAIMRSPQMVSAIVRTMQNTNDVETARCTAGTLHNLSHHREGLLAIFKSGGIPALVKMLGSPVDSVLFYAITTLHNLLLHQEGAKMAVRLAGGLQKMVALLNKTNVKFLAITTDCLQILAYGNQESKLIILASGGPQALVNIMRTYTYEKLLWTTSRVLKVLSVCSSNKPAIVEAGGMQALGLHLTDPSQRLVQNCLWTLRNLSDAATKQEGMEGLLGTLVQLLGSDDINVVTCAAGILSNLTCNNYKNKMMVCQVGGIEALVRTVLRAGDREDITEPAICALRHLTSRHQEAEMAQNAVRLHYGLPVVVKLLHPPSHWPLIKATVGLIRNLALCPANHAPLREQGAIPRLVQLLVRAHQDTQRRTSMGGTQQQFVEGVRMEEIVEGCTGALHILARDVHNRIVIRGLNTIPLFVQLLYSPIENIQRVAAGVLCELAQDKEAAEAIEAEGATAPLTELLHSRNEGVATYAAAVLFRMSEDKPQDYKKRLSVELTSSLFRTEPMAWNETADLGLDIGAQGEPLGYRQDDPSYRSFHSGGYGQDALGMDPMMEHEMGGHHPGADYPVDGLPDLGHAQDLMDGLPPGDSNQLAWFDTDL
Assay: KD50 measurement using competitive fluorescence polarization (FP) with labelled TCF4
Assay type: binding
Details: fluorescence polarization, β-catenin; for Kd: read-out: β-Cat FP KD
From the text: Fluorescence polarization (FP) is another method used to analyze protein-ligand interactions. This methodology measures the change in fluorescence light emitted by a labelled compound free vs. conjugated to another compound in solution. Upon binding of the fluorescent molecule to a complex, polarization increases because of limited rotation of the fluorescent tracer. Competitive FP is often utilized in drug screens as it is formatted for high throughput screens in a plate format. This immunoassay is performed by introducing a non-conjugated drug to compete for binding to the labelled competitor-ligand complex, leading to a reduction in polarization. TCF4 protein is utilized for the competitive assay as (1) this protein influences the full activation of the Wnt pathway and (2) shares homology with the β-catenin inhibitors. Exemplary methodology is described in Example 13. Data were analyzed and plotted in Microsoft Excel (Microsoft, Redmond, WA).
5 nM of labelled TCF4 protein was added to solution of 100 nM of β-catenin and incubated at room temperature in 96-well plates (Greiner 96 Flat transparent plates, Millipore Sigma, Carlsbad CA). Varying concentrations of β-catenin inhibitor candidate (SEQ ID NO: 404) were then added in a series of serial dilutions from 10 nM to 30 uM of inhibitor in different wells of the plate. The fluorescence polarization was read by Infinite M1000 (Tecan, Baldwin Park CA) at excitation wavelength of 470 nm and measured at emission wavelength of 520 nm. […] The experiments were performed three times and data were analyzed and plotted in Microsoft Excel (Microsoft, Redmond, WA).

CC[C@H](C)[C@@H]1NC(=O)[C@H](CC(C)C)NC(=O)[C@H](Cc2ccccc2)NC(=O)[C@H](Cc2c[nH]c3ccccc23)NC(=O)[C@@H](N)CCCCNC(=O)CCCCCNC(=O)C[C@@H](C(=O)O)NC(=O)[C@H](Cc2c[nH]c3ccccc23)NC(=O)[C@H](C)NC(=O)[C@H](CS)NC1=O [compound 249] (HELM PEPTIDE1{K.W.F.L.I.C.A.W.[O=C(O)[C@H](CC(=O)[*:2])N[*:1]].[O=C(CCCCCN[*:1])[*:2]]}$PEPTIDE1,PEPTIDE1,1:R3-10:R2$$$V2.0)
β-Cat FP Hill slope: 0.92
Kd: 0.4 to 1 µM

CC[C@H](C)[C@@H]1NC(=O)[C@H](CC(C)C)NC(=O)[C@H](Cc2ccccc2)NC(=O)[C@H](Cc2c[nH]c3ccccc23)NC(=O)CCCCCCCCCNC(=O)[C@H](Cc2c[nH]c3ccccc23)NC(=O)[C@H](C)NC(=O)[C@H](CS)NC1=O [compound 250] (HELM PEPTIDE1{A.W.[O=C(CCCCCCCCCN[*:1])[*:2]].W.F.L.I.C}$PEPTIDE1,PEPTIDE1,1:R1-8:R2$$$V2.0)
Kd: 1 to 10 µM

CC[C@H](C)[C@@H]1NC(=O)[C@H](CC(C)C)NC(=O)[C@@H](N)CCCCNC(=O)C[C@@H](C(=O)O)NC(=O)[C@H](Cc2c[nH]c3ccccc23)NC(=O)[C@H](Cc2ccccc2)NC(=O)[C@H](C)NC1=O [compound 251] (HELM PEPTIDE1{K.L.I.A.F.W.D}$PEPTIDE1,PEPTIDE1,1:R3-7:R3$$$V2.0)
Kd: > 30 µM

CC[C@H](C)[C@@H]1NC(=O)[C@H](CC(C)C)NC(=O)[C@@H](NC(C)=O)CCCCNC(=O)C[C@@H](C(=O)O)NC(=O)[C@H](Cc2c[nH]c3ccccc23)NC(=O)[C@H](Cc2ccccc2)NC(=O)[C@H](C)NC1=O [compound 252] (HELM PEPTIDE1{[ac].K.L.I.A.F.W.D}$PEPTIDE1,PEPTIDE1,2:R3-8:R3$$$V2.0)
Kd: > 30 µM

CC[C@H](C)[C@@H]1NC(=O)[C@H](CC(C)C)NC(=O)[C@H](Cc2ccccc2)NC(=O)[C@@H](N)CCCCNC(=O)C[C@@H](C(=O)O)NC(=O)[C@H](Cc2c[nH]c3ccccc23)NC(=O)[C@H](Cc2ccccc2)NC(=O)[C@H](C)NC1=O [compound 253] (HELM PEPTIDE1{K.F.L.I.A.F.W.D}$PEPTIDE1,PEPTIDE1,1:R3-8:R3$$$V2.0)
Kd: > 30 µM

CC[C@H](C)[C@@H]1NC(=O)[C@H](CC(C)C)NC(=O)[C@H](Cc2ccccc2)NC(=O)[C@@H](NC(C)=O)CCCCNC(=O)C[C@@H](C(=O)O)NC(=O)[C@H](Cc2c[nH]c3ccccc23)NC(=O)[C@H](Cc2ccccc2)NC(=O)[C@H](C)NC1=O [compound 254] (HELM PEPTIDE1{[ac].K.F.L.I.A.F.W.D}$PEPTIDE1,PEPTIDE1,2:R3-9:R3$$$V2.0)
Kd: > 30 µM

CC[C@H](C)[C@@H]1NC(=O)[C@H](CC(C)C)NC(=O)[C@H](CC2CCCCC2)NC(=O)[C@H](Cc2c[nH]c3ccccc23)NC(=O)[C@@H](NC(C)=O)CCCCNC(=O)C[C@@H](C(=O)O)NC(=O)[C@H](Cc2c[nH]c3ccccc23)NC(=O)[C@H](C)NC(=O)[C@H](CO)NC1=O [compound 255] (HELM PEPTIDE1{[ac].K.W.[Cha].L.I.S.A.W.D}$PEPTIDE1,PEPTIDE1,2:R3-10:R3$$$V2.0)
Kd: > 30 µM

CC[C@H](C)[C@@H]1NC(=O)[C@H](CC(C)C)NC(=O)[C@H](Cc2ccccc2)NC(=O)[C@H](Cc2c[nH]c3ccccc23)NC(=O)[C@@H](N)CCCCNC(=O)CCNC(=O)C[C@@H](C(=O)O)NC(=O)[C@H](Cc2c[nH]c3ccccc23)NC(=O)[C@H](C)NC(=O)[C@H](CS)NC1=O [compound 260] (HELM PEPTIDE1{K.W.F.L.I.C.A.W.[O=C(O)[C@H](CC(=O)[*:2])N[*:1]].[bAla]}$PEPTIDE1,PEPTIDE1,1:R3-10:R2$$$V2.0)
β-Cat FP Hill slope: 1.53
Kd: 1 to 10 µM

CC[C@H](C)[C@H](NC(=O)[C@H](CC(C)C)NC(=O)[C@@H](NC(=O)[C@H](Cc1c[nH]c2ccccc12)NC(C)=O)[C@@H](C)CC)C(=O)N[C@@H](C)C(=O)N[C@@H](Cc1ccccc1)C(=O)N[C@@H](Cc1c[nH]c2ccccc12)C(=O)NCC(=O)O [compound 263] (Ac-WILIAFWG-OH)
β-Cat FP Hill slope: 3
Kd: 0.4 to 1 µM

CC[C@H](C)[C@H](NC(=O)[C@H](CC(C)C)NC(=O)[C@@H](NC(=O)[C@H](Cc1c[nH]c2ccccc12)NC(=O)[C@H](CCSC)N(C)C)[C@@H](C)CC)C(=O)N[C@@H](CO)C(=O)N[C@@H](Cc1ccccc1)C(=O)N[C@@H](Cc1c[nH]c2ccccc12)C(=O)NCC(=O)O [compound 264] (HELM PEPTIDE1{[CSCC[C@@H](C(=O)[*:2])N(C)C].W.I.L.I.S.F.W.G}$$$$V2.0)
β-Cat FP Hill slope: 0.7
Kd: 1 to 10 µM

CC[C@H](C)[C@H](NC(=O)[C@H](CC(C)C)NC(=O)[C@@H](NC(=O)[C@@H](N)Cc1c[nH]c2ccccc12)[C@@H](C)CC)C(=O)N[C@@H](C)C(=O)N[C@@H](Cc1ccccc1)C(=O)N[C@@H](Cc1c[nH]c2ccccc12)C(=O)NCC(=O)O [compound 265] (H-WILIAFWG-OH)
β-Cat FP Hill slope: 0.7
Kd: 1 to 10 µM

CC[C@H](C)[C@H](NC(=O)[C@H](CC(=O)O)NC(=O)[C@H](CCCNC(=N)N)NC(=O)[C@H](CC(C)C)NC(=O)[C@@H](NC(=O)[C@H](CCC(N)=O)NC(=O)[C@H](CC(C)C)NC(=O)[C@H](CO)NC(=O)[C@H](CCCNC(=N)N)NC(=O)[C@H](CCC(=O)O)NC(=O)[C@H](CCCNC(=N)N)NC(=O)[C@H](Cc1c[nH]cn1)NC(=O)[C@H](CCC(=O)O)NC(=O)[C@H](CC(C)C)NC(=O)[C@H](CCC(N)=O)NC(=O)[C@H](CCC(=O)O)NC(=O)[C@H](CCC(N)=O)NC(=O)[C@H](CO)NC(=O)[C@H](CC(C)C)NC(=O)CNC(=O)[C@H](CC(=O)O)NC(=O)[C@@H]1CCCN1C(=O)[C@H](CC(N)=O)NC(C)=O)[C@@H](C)O)C(=O)N[C@@H](CCC(N)=O)C(=O)N[C@@H](CCCNC(=N)N)C(=O)N[C@@H](CCSC)C(=O)N[C@@H](CC(C)C)C(=O)N[C@@H](Cc1ccccc1)C(=O)N1CCC[C@H]1C(=O)N[C@@H](CC(=O)O)C(=O)N[C@@H](CCC(=O)O)C(=O)N[C@@H](CCCCN)C(=O)N[C@@H](CCC(=O)O)C(=O)N[C@@H](Cc1ccccc1)C(=O)N[C@H](C(=O)NCCC(=O)NCCC(=O)N[C@@H](CCCCN)C(N)=O)[C@@H](C)O [compound 270]
Kd: > 30 µM

CC[C@H](C)[C@@H]1NC(=O)[C@H](CC(C)C)NC(=O)[C@H](Cc2ccccc2)NC(=O)[C@H](Cc2c[nH]c3ccccc23)NC(=O)[C@@H](N)CCCCNC(=O)CC[C@@H](C(=O)NCC(=O)O)NC(=O)[C@H](Cc2c[nH]c3ccccc23)NC(=O)[C@H](Cc2ccccc2)NC(=O)[C@H](CS)NC1=O [compound 272] (HELM PEPTIDE1{K.W.F.L.I.C.F.W.E.G}$PEPTIDE1,PEPTIDE1,1:R3-9:R3$$$V2.0)
β-Cat FP Hill slope: 0.84
Kd: 1 to 10 µM

CC[C@H](C)[C@H](NC(=O)[C@H](CC(C)C)NC(=O)[C@H](Cc1ccccc1)NC(=O)[C@H](Cc1c[nH]c2ccccc12)NC(=O)[C@H](CCSC)NC(C)=O)C(=O)N[C@@H](C)C(=O)N[C@@H](Cc1ccccc1)C(=O)N[C@@H](Cc1c[nH]c2ccccc12)C(=O)NCC(=O)O [compound 274] (Ac-MWFLIAFWG-OH)
β-Cat FP Hill slope: 2.2
Kd: < 0.4 µM

CC[C@H](C)[C@@H]1NC(=O)[C@H](CC(C)C)NC(=O)[C@H](Cc2ccc(O)cc2)NC(=O)[C@H](Cc2c[nH]c3ccccc23)NC(=O)[C@H](CCSC)NC(=O)[C@H](CCCNC(=N)N)NC(=O)[C@H](CO)NC(=O)[C@@H](N)CCCNC(=O)[C@H](Cc2c[nH]c3ccccc23)NC(=O)[C@H](Cc2ccccc2)NC(=O)[C@H](CO)NC1=O [compound 277] (HELM PEPTIDE1{[Orn].S.R.M.W.Y.L.I.S.F.W}$PEPTIDE1,PEPTIDE1,1:R3-11:R2$$$V2.0)
β-Cat FP Hill slope: 0.7
Kd: > 30 µM

CC[C@H](C)[C@@H]1NC(=O)[C@H](CC(C)C)NC(=O)[C@H](Cc2ccccc2)NC(=O)[C@H](Cc2c[nH]c3ccccc23)NC(=O)[C@@H](N)CCCCNC(=O)CN(CC(=O)O)C(=O)[C@H](Cc2c[nH]c3ccccc23)NC(=O)[C@H](C)NC(=O)[C@H](CS)NC1=O [compound 284]
β-Cat FP Hill slope: 0.7
